Several values for one entry are separate records, joined by “and”; a condition that tells them apart may be missing. Equal values may be shown once.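 Growth conditions: 96-well plates. Treatment: test compound, 48 hours, 5 concentrations. Analysis: linear interpolation between bracketing concentrations; unreached endpoints set to highest concentration. At the GI50, growth is halved. At the TGI there is no net growth.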

Test systems include EKVX NSCLC; BT-549 breast; HT29 colon; K-562 leukemia; HCT-15 colon; NCI-H23 lung; MOLT-4 leukemia; SK-MEL-5 melanoma; PC-3 prostate; SN12C renal.
Holding throughout (test): NCI tumour cell line growth inhibition, 48 h

In the case of `Cn1ncc(Cl)c1-c1cc(C(=O)N[C@H](CN)Cc2cccc(F)c2)sc1Cl`, the GI50 in the assay with EKVX NSCLC was 3.24 µM; in the assay with BT-549 breast, 0.518 µM and 1.33 µM; in the assay on HT29 colon it was 0.733 µM and 2.03 µM; with K-562 leukemia, 1.33 µM and 2.24 µM; with HCT-15 colon, 1.44 µM and 2.59 µM; in the assay with NCI-H23 lung it was 2.45 µM and 8.12 µM. For the same compound, the GI50 is 0.196 µM and 0.123 µM in the assay on MOLT-4 leukemia; 1.96 µM and 3.64 µM in the assay on SK-MEL-5 melanoma; 0.32 µM and 0.554 µM with PC-3 prostate; 1.86 µM and 2.04 µM with SN12C renal. In addition, the TGI with EKVX NSCLC was over 10 µM; with BT-549 breast it was 3.35 µM and 7.5 µM; in the assay on HT29 colon, > 6.18 µM and 13.9 µM; in the assay with K-562 leukemia, 5.16 µM and 6.74 µM; in the assay with HCT-15 colon it was > 10 µM and 16.2 µM; in the assay on NCI-H23 lung, > 8.23 µM and 22 µM. The TGI with MOLT-4 leukemia was 3.13 µM and 3.51 µM; in the assay with SK-MEL-5 melanoma it was 3.99 µM and 8.3 µM; in the assay on PC-3 prostate, > 5.56 µM and 10.2 µM; with SN12C renal it was > 10 µM and 19.3 µM.

Turning to `COc1cnc2c(c1)C(=O)c1c-2n(CCCN2CCCC2)c(=O)c2cc([N+](=O)[O-])ccc12`, the GI50 was 0.297 µM in the assay on EKVX NSCLC; 0.354 µM in the assay with BT-549 breast; 0.0202 µM in the assay with HT29 colon; 0.0226 µM with K-562 leukemia; 0.0616 µM in the assay with HCT-15 colon; 0.0272 µM with NCI-H23 lung. Further, the GI50 with MOLT-4 leukemia is under 0.01 µM; with SK-MEL-5 melanoma it was 0.0671 µM; with PC-3 prostate it was 0.0662 µM; in the assay with SN12C renal it was 0.036 µM. Besides, the TGI was determined as 12.3 µM in the assay with EKVX NSCLC; 16 µM in the assay on BT-549 breast; 1.37 µM with HT29 colon; 1.9 µM with K-562 leukemia; 4.05 µM with HCT-15 colon; 1.25 µM with NCI-H23 lung. In addition, the TGI came out at 0.0451 µM with MOLT-4 leukemia, 0.322 µM with SK-MEL-5 melanoma, 13.9 µM with PC-3 prostate and 15.3 µM in the assay with SN12C renal.

Consider `CCOC(=O)C(=Cc1ccc(C#N)cc1)C(=O)OCC`, for which the GI50 in the assay on EKVX NSCLC was 4.83 µM; in the assay on BT-549 breast it was 2.06 µM; with HT29 colon it was 1.93 µM; in the assay with K-562 leukemia it was 3.44 µM; in the assay with HCT-15 colon, 2.03 µM; with NCI-H23 lung, 2.15 µM. The GI50 with MOLT-4 leukemia is 3.09 µM; in the assay on SK-MEL-5 melanoma it was 1.92 µM; in the assay with PC-3 prostate it was 2.28 µM; in the assay on SN12C renal, 1.81 µM. Also, the TGI in the assay on EKVX NSCLC was 17.6 µM; with BT-549 breast, 4.9 µM; in the assay on HT29 colon, 3.77 µM; in the assay with K-562 leukemia it was over 100 µM; with HCT-15 colon, 6.17 µM; in the assay on NCI-H23 lung it was 5.53 µM. In addition, the TGI was 11.5 µM in the assay with MOLT-4 leukemia, 3.67 µM with SK-MEL-5 melanoma, 4.9 µM in the assay with PC-3 prostate and 4.71 µM in the assay with SN12C renal.

Turning to `COc1ccc2c(c1)CCC1C2CC[C@@]2(C)C1CC[C@@H]2NC(=O)Cc1ccc(O)c(O)c1` (stereo not given in full), the GI50 was 13.5 µM with EKVX NSCLC; 9.66 µM in the assay on BT-549 breast; 10.3 µM with HT29 colon; 4.31 µM in the assay with K-562 leukemia; 3.74 µM with HCT-15 colon; 11.9 µM in the assay on NCI-H23 lung. For the same compound, the GI50 with MOLT-4 leukemia is 2.76 µM; with SK-MEL-5 melanoma it was 8.96 µM; with PC-3 prostate it was 6.3 µM; in the assay with SN12C renal, 5.79 µM. Besides, the TGI with EKVX NSCLC was 31.4 µM; with BT-549 breast, 25.5 µM; with HT29 colon, 25.3 µM; in the assay with K-562 leukemia it was over 100 µM; with HCT-15 colon it was 16.7 µM; in the assay with NCI-H23 lung, 27.6 µM. For the same compound, the TGI in the assay with MOLT-4 leukemia came to 83 µM; in the assay on SK-MEL-5 melanoma, 21.8 µM; in the assay on PC-3 prostate, 19.4 µM; in the assay with SN12C renal, 19.6 µM.

Take `COc1cc2nc(N3CCCN(C)CC3)nc(NC3CCN(Cc4ccccc4)CC3)c2cc1OC`: the GI50 was 3.83 µM in the assay on EKVX NSCLC; 1.94 µM with BT-549 breast; 1.33 µM with HT29 colon; 1.47 µM in the assay on K-562 leukemia; 1.83 µM in the assay with HCT-15 colon; 5.71 µM with NCI-H23 lung. Moreover, the GI50 in the assay with MOLT-4 leukemia is 1.8 µM; in the assay with SK-MEL-5 melanoma, 1.73 µM; with PC-3 prostate it was 4.4 µM; in the assay with SN12C renal, 6.68 µM. Besides, the TGI was 13.9 µM in the assay on EKVX NSCLC; 4.68 µM in the assay with BT-549 breast; 5.26 µM in the assay on HT29 colon; 4.56 µM with K-562 leukemia; 4.41 µM in the assay on HCT-15 colon; 19.7 µM with NCI-H23 lung. In addition, the TGI in the assay with MOLT-4 leukemia is 6.25 µM; with SK-MEL-5 melanoma, 3.14 µM; with PC-3 prostate it was 20.1 µM; in the assay on SN12C renal it was 25 µM.

In the case of `Fc1cccc(COc2ccc(Nc3ncnc4onc(-c5ccccc5)c34)cc2)c1`, the GI50 in the assay on EKVX NSCLC is 1.61 µM; in the assay on BT-549 breast, 0.347 µM; in the assay with HT29 colon, 0.0495 µM; with K-562 leukemia, 0.101 µM; in the assay on HCT-15 colon, 2.43 µM; in the assay on NCI-H23 lung, 0.583 µM. Further, the GI50 in the assay on MOLT-4 leukemia was 0.27 µM; with SK-MEL-5 melanoma, 0.299 µM; in the assay with PC-3 prostate, 0.262 µM; in the assay on SN12C renal it was 0.347 µM. The TGI in the assay on EKVX NSCLC is over 100 µM; in the assay on BT-549 breast, over 100 µM; in the assay with HT29 colon, over 34 µM; with K-562 leukemia, over 100 µM; with HCT-15 colon, over 100 µM; in the assay on NCI-H23 lung, over 100 µM. Moreover, the TGI in the assay with MOLT-4 leukemia was over 100 µM; in the assay on SK-MEL-5 melanoma it was 30.4 µM; in the assay on PC-3 prostate, over 100 µM; in the assay with SN12C renal, over 100 µM.

Take `Cc1cc(OCc2nnc3n2S(=O)(=O)c2ccccc2N3C)ccc1Cl`: the TGI with EKVX NSCLC was over 100 µM; in the assay on BT-549 breast it was 36.4 µM; with HT29 colon it was over 100 µM; with K-562 leukemia it was over 100 µM; in the assay on HCT-15 colon it was over 100 µM; in the assay with NCI-H23 lung it was over 100 µM. Besides, the TGI with MOLT-4 leukemia, with SK-MEL-5 melanoma, in the assay on PC-3 prostate and in the assay with SN12C renal was over 100 µM in each case.

Take `COc1cc(CCC[P+](c2ccccc2)(c2ccccc2)c2ccccc2)c(OC)c2c1OCO2`: the GI50 was 2.83 µM in the assay on EKVX NSCLC; 1.08 µM with BT-549 breast; 0.812 µM in the assay with HT29 colon; 0.659 µM with K-562 leukemia; 13.4 µM with HCT-15 colon; 1.67 µM in the assay on NCI-H23 lung. The GI50 in the assay with MOLT-4 leukemia was 3.33 µM; with SK-MEL-5 melanoma, 1.21 µM; in the assay with PC-3 prostate it was 1.55 µM; in the assay with SN12C renal it was 2.56 µM. The TGI is 35.2 µM in the assay on EKVX NSCLC; 8.5 µM in the assay on BT-549 breast; 41 µM in the assay on HT29 colon; over 100 µM with K-562 leukemia; over 100 µM in the assay on HCT-15 colon; 10.3 µM with NCI-H23 lung. The TGI in the assay with MOLT-4 leukemia is 18.9 µM; in the assay with SK-MEL-5 melanoma, 2.5 µM; in the assay with PC-3 prostate, over 100 µM; with SN12C renal, 10.5 µM.

For the origin of these results see PubChem BioAssay (NCI).
